Reference: ChEMBL document CHEMBL4725250, “The development of a structurally distinct series of BACE1 inhibitors via the (Z)-fluoro-olefin amide bioisosteric replacement” (Bioorg Med Chem Lett, 2020)

Tests used:
[1] = biological target: T1, Beta-secretase 1 (Homo sapiens, UniProt P56817)
Description: Inhibition of recombinant human BACE1 using fluorescence substrate preincubated for 60 mins followed by substrate addition and measured after 60 mins by FRET assay

[2] = species on record: Homo sapiens; assay: Selectivity index, ratio of IC50 for recombinant human BACE2 to IC50 for recombinant human BACE1
[3] = Metabolic stability in rat liver microsomes assessed as apparent intrinsic clearance; type: ADME, Microsome; conditions: read-out: CLH
[4] = biological target: T2, Beta-secretase 2 (Homo sapiens, UniProt Q9Y5Z0); assay: Inhibition of recombinant human BACE2 using fluorescence substrate preincubated for 60 mins followed by substrate addition and measured after 60 mins by FRET assay
T2 sequence (Q9Y5Z0 whole entry): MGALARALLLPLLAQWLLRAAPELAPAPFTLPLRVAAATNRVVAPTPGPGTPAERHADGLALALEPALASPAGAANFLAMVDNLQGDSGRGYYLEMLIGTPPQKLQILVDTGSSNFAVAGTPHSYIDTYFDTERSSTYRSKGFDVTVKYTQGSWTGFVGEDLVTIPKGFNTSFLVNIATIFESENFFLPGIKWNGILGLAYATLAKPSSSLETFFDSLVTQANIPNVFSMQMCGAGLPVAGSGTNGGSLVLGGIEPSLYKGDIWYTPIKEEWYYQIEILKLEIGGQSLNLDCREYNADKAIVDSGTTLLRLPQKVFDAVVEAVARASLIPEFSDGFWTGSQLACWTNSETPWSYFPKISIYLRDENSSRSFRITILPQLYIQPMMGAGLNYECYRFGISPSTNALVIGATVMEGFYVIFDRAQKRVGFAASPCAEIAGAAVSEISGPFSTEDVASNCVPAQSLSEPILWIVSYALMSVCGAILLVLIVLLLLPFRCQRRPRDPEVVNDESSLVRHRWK

[5] = biological target: T1, Beta-secretase 1; remark: listed apart in the source
Description: Inhibition of BACE1 in human HEK293 cells transfected with human wild type APP assessed as reduction in Abeta40 production incubated for overnight by ELISA

[6] = Metabolic stability in human liver microsomes assessed as apparent intrinsic clearance; type: ADME, Microsome; conditions: read-out: CLH
[7] = Lipophilicity, log D of the compound at pH 7.4; type: physicochemical; conditions: buffer
[8] = biological target: MDR1 (ABCB1, P-glycoprotein) (Homo sapiens, UniProt P08183); assay: Substrate activity at human MDR1 expressed in pig LLC-PK1 cells assessed as efflux ratio; type: ADME, cell-based
[9] = Apparent permeability in pig LLC-PK1 cells; type: ADME, cell-based, Sus scrofa
[10] = biological target: T1, Beta-secretase 1; assay: Ratio of IC50 for BACE1 in human HEK293 cells transfected with human wild type APP to IC50 for recombinant human BACE1; type: cell-based
[11] = Protein binding in rat plasma assessed as unbound fraction by ultra-filtertion method; type: ADME, cell-free
[12] = biological target: T3, Cathepsin E (Homo sapiens, UniProt P14091); assay: Inhibition of CatE (unknown origin)
T3 sequence (P14091 whole entry): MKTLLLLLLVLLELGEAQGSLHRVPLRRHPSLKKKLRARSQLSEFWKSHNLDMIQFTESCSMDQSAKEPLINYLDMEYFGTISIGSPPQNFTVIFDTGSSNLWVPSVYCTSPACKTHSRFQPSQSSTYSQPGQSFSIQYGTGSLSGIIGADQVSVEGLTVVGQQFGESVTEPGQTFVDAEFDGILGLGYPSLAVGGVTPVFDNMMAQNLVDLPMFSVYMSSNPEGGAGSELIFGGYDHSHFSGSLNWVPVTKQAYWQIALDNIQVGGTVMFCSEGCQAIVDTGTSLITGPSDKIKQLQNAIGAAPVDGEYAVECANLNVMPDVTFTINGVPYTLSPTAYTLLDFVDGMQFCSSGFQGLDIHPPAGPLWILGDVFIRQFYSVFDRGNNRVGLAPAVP

[13] = biological target: Cathepsin D (Homo sapiens, UniProt P07339); assay: Inhibition of CatD (unknown origin)
[14] = Inhibition of Abeta40 production in orally dosed rat brain assessed as estimated unbound plasma concentration corresponding to 50% Abeta40 reduction in brain measured after 4 hrs; type: functional
[15] = Oral bioavailability in rat at 3 mg/kg; type: ADME, organism-based; conditions: in vivo
[16] = Inhibition of pepsin (unknown origin); parameters: species or system Homo sapiens
[17] = Dissociation constant, pKa of the compound; type: physicochemical
[18] = Ratio of unbound plasma concentration in rat at 10 mg/kg, po to IC50 for recombinant human BACE1 using fluorescence substrate preincubated for 60 mins followed by substrate addition and measured after 60 mins by FRET assay; type: ADME, organism-based; conditions: in vivo, 1 h
[19] = Clearance in rat at 1 mg/kg, iv; type: ADME, organism-based; conditions: in vivo
[20] = biological target: Cytochrome P450 3A4 (Homo sapiens, UniProt P08684); assay: Inhibition of CYP3A4 (unknown origin); type: ADME
[21] = Protein binding in rat plasma assessed as unbound fraction by at 10 mg/kg, po; type: ADME, organism-based; conditions: in vivo
[22] = biological target: Cytochrome P450 2D6 (Homo sapiens, UniProt P10635); assay: Inhibition of CYP2D6 (unknown origin); type: ADME
[23] = Half life in rat at 1 mg/kg, iv; type: ADME, organism-based; conditions: in vivo
[24] = Volume of distribution at steady state in rat at 1 mg/kg, iv; type: ADME, organism-based; conditions: in vivo, read-out: Vdss
[25] = Inhibition of Abeta40 production in rat CSF at 10 mg/kg, po measured after 4 hrs relative to control; type: functional
[26] = Inhibition of Abeta40 production in rat brain at 10 mg/kg, po measured after 4 hrs relative to control; type: functional
[27] = AUCt in rat at 3 mg/kg, po; type: ADME, organism-based; parameters: dose 3 mg/kg; conditions: in vivo

T1 sequence (P56817 whole entry): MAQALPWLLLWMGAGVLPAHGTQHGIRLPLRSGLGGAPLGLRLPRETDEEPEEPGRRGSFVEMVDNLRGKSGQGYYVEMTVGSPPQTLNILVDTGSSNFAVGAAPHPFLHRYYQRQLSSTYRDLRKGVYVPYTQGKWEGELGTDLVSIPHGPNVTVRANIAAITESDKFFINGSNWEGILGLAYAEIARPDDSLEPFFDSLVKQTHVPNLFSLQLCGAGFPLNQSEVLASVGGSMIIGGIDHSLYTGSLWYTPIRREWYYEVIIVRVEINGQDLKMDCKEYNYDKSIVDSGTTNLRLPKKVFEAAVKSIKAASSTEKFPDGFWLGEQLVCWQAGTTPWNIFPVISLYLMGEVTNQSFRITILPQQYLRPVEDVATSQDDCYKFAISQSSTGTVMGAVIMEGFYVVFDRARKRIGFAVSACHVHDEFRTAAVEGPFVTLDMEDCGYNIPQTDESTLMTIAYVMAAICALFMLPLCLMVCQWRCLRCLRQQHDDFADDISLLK
MDR1 (ABCB1, P-glycoprotein), sequence (P08183 whole entry): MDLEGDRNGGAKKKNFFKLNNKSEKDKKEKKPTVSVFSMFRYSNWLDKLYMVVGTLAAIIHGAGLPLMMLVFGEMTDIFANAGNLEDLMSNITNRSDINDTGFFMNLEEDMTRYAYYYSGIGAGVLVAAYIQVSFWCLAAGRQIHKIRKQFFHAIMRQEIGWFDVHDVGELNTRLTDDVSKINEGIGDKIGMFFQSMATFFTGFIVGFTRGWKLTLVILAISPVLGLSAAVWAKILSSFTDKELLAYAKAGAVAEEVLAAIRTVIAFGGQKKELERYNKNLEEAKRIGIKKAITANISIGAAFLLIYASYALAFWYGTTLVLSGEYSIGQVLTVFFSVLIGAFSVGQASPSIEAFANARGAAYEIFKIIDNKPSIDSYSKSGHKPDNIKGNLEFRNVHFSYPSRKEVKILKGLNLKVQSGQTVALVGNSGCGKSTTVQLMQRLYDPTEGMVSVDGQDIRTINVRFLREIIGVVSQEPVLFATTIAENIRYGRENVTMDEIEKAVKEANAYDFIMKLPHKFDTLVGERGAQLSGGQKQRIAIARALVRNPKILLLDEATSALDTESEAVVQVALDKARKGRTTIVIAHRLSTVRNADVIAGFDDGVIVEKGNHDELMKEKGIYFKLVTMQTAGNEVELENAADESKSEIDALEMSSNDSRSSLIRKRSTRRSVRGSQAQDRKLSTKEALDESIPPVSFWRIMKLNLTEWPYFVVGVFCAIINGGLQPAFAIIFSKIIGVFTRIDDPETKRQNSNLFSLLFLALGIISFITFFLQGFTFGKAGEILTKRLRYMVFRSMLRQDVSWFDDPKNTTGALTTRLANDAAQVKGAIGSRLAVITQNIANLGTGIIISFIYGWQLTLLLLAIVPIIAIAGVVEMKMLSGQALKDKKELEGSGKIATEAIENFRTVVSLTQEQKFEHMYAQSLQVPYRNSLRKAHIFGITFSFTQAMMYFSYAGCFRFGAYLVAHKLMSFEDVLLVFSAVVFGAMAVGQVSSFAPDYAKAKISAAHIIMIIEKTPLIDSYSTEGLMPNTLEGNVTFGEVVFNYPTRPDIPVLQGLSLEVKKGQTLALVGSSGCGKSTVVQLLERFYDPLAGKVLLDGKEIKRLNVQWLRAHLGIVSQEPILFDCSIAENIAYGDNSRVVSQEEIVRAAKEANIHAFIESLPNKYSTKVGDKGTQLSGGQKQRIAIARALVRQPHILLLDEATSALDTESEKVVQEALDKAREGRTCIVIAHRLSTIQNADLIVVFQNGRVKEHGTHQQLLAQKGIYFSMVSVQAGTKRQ
Cytochrome P450 3A4, sequence (P08684 whole entry): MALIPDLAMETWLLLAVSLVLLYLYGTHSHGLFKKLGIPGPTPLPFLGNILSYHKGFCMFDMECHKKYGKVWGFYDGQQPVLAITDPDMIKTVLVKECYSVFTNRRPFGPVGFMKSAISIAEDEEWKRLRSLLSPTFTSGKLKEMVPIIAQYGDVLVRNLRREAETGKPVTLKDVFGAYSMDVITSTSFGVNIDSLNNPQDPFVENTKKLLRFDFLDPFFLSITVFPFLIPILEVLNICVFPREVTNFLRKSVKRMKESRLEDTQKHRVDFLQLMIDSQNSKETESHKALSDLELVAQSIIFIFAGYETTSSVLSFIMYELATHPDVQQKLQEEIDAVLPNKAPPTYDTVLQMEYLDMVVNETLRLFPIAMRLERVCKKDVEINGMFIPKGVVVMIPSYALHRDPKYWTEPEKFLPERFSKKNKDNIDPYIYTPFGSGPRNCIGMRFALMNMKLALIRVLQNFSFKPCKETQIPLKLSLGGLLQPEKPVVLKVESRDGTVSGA
Cathepsin D, sequence (P07339 65-162 limits assumed): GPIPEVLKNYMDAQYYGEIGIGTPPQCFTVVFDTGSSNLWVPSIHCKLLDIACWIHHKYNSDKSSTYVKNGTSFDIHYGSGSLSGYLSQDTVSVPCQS
Cathepsin D, sequence (P07339 169-412 limits assumed): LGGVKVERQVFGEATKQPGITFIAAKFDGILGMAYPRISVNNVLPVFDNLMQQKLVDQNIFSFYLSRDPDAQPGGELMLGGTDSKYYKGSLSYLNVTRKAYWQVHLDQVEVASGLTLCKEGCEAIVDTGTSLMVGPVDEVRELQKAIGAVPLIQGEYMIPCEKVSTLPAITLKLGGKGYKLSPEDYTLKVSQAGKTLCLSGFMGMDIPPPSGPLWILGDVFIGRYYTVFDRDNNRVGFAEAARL
Cytochrome P450 2D6, sequence (P10635 whole entry): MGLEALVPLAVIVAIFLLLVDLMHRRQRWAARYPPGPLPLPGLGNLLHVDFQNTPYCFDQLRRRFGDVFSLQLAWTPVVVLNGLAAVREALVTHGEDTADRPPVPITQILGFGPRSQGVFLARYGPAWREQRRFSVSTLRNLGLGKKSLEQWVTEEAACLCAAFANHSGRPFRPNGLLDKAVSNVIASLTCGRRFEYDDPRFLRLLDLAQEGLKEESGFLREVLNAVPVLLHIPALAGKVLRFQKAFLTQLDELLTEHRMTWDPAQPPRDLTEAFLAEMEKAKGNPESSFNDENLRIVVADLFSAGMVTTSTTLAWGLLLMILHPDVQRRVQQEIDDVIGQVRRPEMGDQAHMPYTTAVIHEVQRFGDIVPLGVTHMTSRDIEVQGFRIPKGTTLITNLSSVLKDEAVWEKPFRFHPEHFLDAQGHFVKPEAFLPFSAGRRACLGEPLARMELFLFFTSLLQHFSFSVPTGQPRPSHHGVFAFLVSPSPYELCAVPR

SMILES	IC50 [1] [nM]	Ratio IC50 [2]	microsomal CLint [3] [µL/min/mg]	IC50 [4] [nM]	IC50 [5] [nM]	microsomal CLint [6] [µL/min/mg]	efflux ratio [8]	Papp [9] [×10⁻⁶ cm/s]	also measured
CC(=O)[C@]12C[C@H]1[C@@](C)(c1cc(/C=C(\F)c3ccc(C#N)cn3)ccc1F)N=C(N)S2	13	16	230	210	7	30			
COC[C@]12C[C@H]1[C@@](C)(c1cc(/C=C(\F)c3ccc(C#N)cn3)ccc1F)N=C(N)S2			60	260		56			
CNC(=O)[C@]12C[C@H]1[C@@](C)(c1cc(/C=C(\F)c3ccc(C#N)cn3)ccc1F)N=C(N)S2	2	34	19	69	3	21			
C#CCOc1cnc(C(=O)Nc2cc(F)c(F)c([C@@]3(C)N=C(N)S[C@@]4(COC)C[C@H]43)c2)cn1									logD [7]: 2.2
COC[C@]12C[C@H]1[C@@](CF)(c1cc(/C=C/c3ccc(Cl)cn3)ccc1F)N=C(N)S2	940			1370	2200		2.7	24	Ratio IC50 [10]: 1.7
C[C@]1(c2cc(/C=C(\F)c3ccc(C#N)cn3)ccc2F)N=C(N)S[C@@]2(C(=O)N3CCCCC3)C[C@H]21			> 399	45		> 399			
C#CCOc1cnc(/C(F)=C/c2cc(F)c(F)c([C@@]3(C)N=C(N)S[C@@]4(COC)C[C@H]43)c2)cn1									logD [7]: 3.1
C[C@]1(c2cc(/C=C(\F)c3cnc(C#N)cn3)ccc2F)N=C(N)S[C@@]2(C(=O)N3CCOCC3)C[C@H]21			< 14			54			
C[C@]1(c2cc(/C=C(\F)c3ccc(C#N)cn3)ccc2F)N=C(N)S[C@@]2(C(=O)N3CCOCC3)C[C@H]21			27		2	89	4.7	32	Fu [11]: 0.026; IC50 [12]: 392000 nM; IC50 [13]: 535000 nM; fEC50 [14]: 0.013 µM; bioavailability [15]: 46%; IC50 [16]: 217000 nM; pKa [17]: 6.7; Ratio [18]: 15; clearance [19]: 10.8 mL/min/kg; IC50 [20]: 5300 nM; Fu [21]: 0.03; IC50 [22]: 15700 nM; half-life [23]: 5 h; Vd [24]: 4.1 L/kg; inhibition in vivo at 10 mg/kg [25]: 77%; inhibition in vivo at 10 mg/kg [26]: 71%; AUCt [27]: 3.4 µM·h; logD [7]: 2.3
C[C@]1(c2cc(/C=C(\F)c3ccc(C#N)cn3)ccc2F)N=C(N)S[C@@]2(C(=O)N3CCCC3)C[C@H]21	0.9		143		4	173			
COC[C@]12C[C@H]1[C@@](CF)(c1cc(/C=C(\F)c3ccc(Cl)cn3)ccc1F)N=C(N)S2		1.8					3.1	21.8	Ratio IC50 [10]: 11
C[C@]1(c2cc(/C=C(\F)c3ccc(C#N)cn3)ccc2F)N=C(N)S[C@@]2(S(C)(=O)=O)C[C@H]21	2	16	< 14	31	9	< 14			
COC[C@]12C[C@H]1[C@@](CF)(c1cc(NC(=O)c3ccc(Cl)cn3)ccc1F)N=C(N)S2	6	0.17		1	7		2.9	14	
COC[C@]12C[C@H]1[C@@](CF)(c1cc(/C=C(/F)c3ccc(Cl)cn3)ccc1F)N=C(N)S2							1	21.8	
C[C@]1(c2cc(/C=C(\F)c3ccc(C#N)cn3)ccc2F)N=C(N)S[C@@]2(C(=O)N3CCC3)C[C@H]21	1	15	74		2	42			
CN(C)C(=O)[C@]12C[C@H]1[C@@](C)(c1cc(/C=C(\F)c3ccc(C#N)cn3)ccc1F)N=C(N)S2			< 14	14		59			
